What was measured:
HRV type 1A = test: Inhibition of viral cytopathic effect (CPE), visual scoring or neutral red, HRV type 1A in MRC-5 cells; type: cell-based, human rhinovirus; settings: for Activity on Rhinovirus Type 1A EC50: HRV type 1A in MRC-5 cells, CPE inhibition; for Activity on Rhinovirus Type 1A SI: selectivity index = CC50 or MTC divided by EC50, HRV type 1A, MRC-5 cells
HRV type 2 = test: Inhibition of viral cytopathic effect (CPE), visual scoring or neutral red, HRV type 2 in KB cells; type: cell-based, human rhinovirus; settings: for Activity on Rhinovirus Type 2 EC50: HRV type 2 in KB cells, CPE inhibition; for Activity on Rhinovirus Type 2 SI: selectivity index = CC50 or MTC divided by EC50, HRV type 2, KB cells
Rhinovirus Type 14 = type: cell-based, human rhinovirus; settings: HRV-14
[1] = system: human embryo lung (MRC-5) cells; test: Cytotoxicity (CC50 or MTC) in uninfected MRC-5 cells; settings: unit not given

CCON=Cc1ccc(OCCC2CCN(c3ccc(Cl)nn3)CC2)c(OC)c1 [Compound 5]
Activity on Rhinovirus Type 1A EC50 (HRV type 1A): <0.0032 µg/mL
Activity on Rhinovirus Type 1A SI (HRV type 1A): >312
Activity on Rhinovirus Type 2 EC50 (HRV type 2): 0.009 µg/mL
Activity on Rhinovirus Type 2 SI (HRV type 2): >111
Activity on Rhinovirus Type 14 EC50 (Rhinovirus Type 14): 0.0077 µg/mL
Activity on Rhinovirus Type 1A MTC [1]: >1

CON=Cc1ccc(OCCC2CCN(c3ccc(C)nn3)CC2)cc1 [Compound 7]
Activity on Rhinovirus Type 1A EC50 (HRV type 1A): <0.0032 µg/mL
Activity on Rhinovirus Type 1A SI (HRV type 1A): >312
Activity on Rhinovirus Type 2 EC50 (HRV type 2): 0.15 µg/mL
Activity on Rhinovirus Type 2 SI (HRV type 2): >7
Activity on Rhinovirus Type 14 EC50 (Rhinovirus Type 14): 0.0068 µg/mL
Activity on Rhinovirus Type 1A MTC [1]: >1

CON=Cc1ccc(OCCC2CCN(c3ccc(Cl)nn3)CC2)cc1 [Compound 8]
Activity on Rhinovirus Type 1A EC50 (HRV type 1A): <0.0032 µg/mL
Activity on Rhinovirus Type 1A SI (HRV type 1A): >312
Activity on Rhinovirus Type 2 EC50 (HRV type 2): 0.03 µg/mL
Activity on Rhinovirus Type 2 SI (HRV type 2): >33
Activity on Rhinovirus Type 14 EC50 (Rhinovirus Type 14): 0.0072 µg/mL
Activity on Rhinovirus Type 1A MTC [1]: >1

CCCON=Cc1ccc(OCCC2CCN(c3ccc(Cl)nn3)CC2)cc1 [Compound 11]
Activity on Rhinovirus Type 1A EC50 (HRV type 1A): <0.0032 µg/mL
Activity on Rhinovirus Type 1A SI (HRV type 1A): >312
Activity on Rhinovirus Type 2 EC50 (HRV type 2): 0.004 µg/mL
Activity on Rhinovirus Type 2 SI (HRV type 2): >250
Activity on Rhinovirus Type 14 EC50 (Rhinovirus Type 14): 0.0077 µg/mL
Activity on Rhinovirus Type 1A MTC [1]: >1

C=CCON=Cc1ccc(OCCC2CCN(c3ccc(Cl)nn3)CC2)cc1 [Compound 13]
Activity on Rhinovirus Type 1A EC50 (HRV type 1A): <0.0032 µg/mL
Activity on Rhinovirus Type 1A SI (HRV type 1A): >312
Activity on Rhinovirus Type 2 EC50 (HRV type 2): 0.006 µg/mL
Activity on Rhinovirus Type 2 SI (HRV type 2): 83
Activity on Rhinovirus Type 14 EC50 (Rhinovirus Type 14): 0.0078 µg/mL
Activity on Rhinovirus Type 1A MTC [1]: >1

CON=Cc1ccc(OCCC2CCN(c3ccc(Cl)nn3)CC2)c(OC)c1 [Compound 33]
Activity on Rhinovirus Type 1A EC50 (HRV type 1A): 0.014 µg/mL
Activity on Rhinovirus Type 1A SI (HRV type 1A): >72.4
Activity on Rhinovirus Type 2 EC50 (HRV type 2): 0.04 µg/mL
Activity on Rhinovirus Type 2 SI (HRV type 2): >25
Activity on Rhinovirus Type 14 EC50 (Rhinovirus Type 14): 0.0138 µg/mL
Activity on Rhinovirus Type 1A MTC [1]: >1

CCON=Cc1ccc(OCCC2CCN(c3ccc(Cl)nn3)CC2)c(C)c1 [Compound 42]
Activity on Rhinovirus Type 1A EC50 (HRV type 1A): 0.006 µg/mL
Activity on Rhinovirus Type 1A SI (HRV type 1A): >177.8
Activity on Rhinovirus Type 2 EC50 (HRV type 2): 0.006 µg/mL
Activity on Rhinovirus Type 2 SI (HRV type 2): >167
Activity on Rhinovirus Type 14 EC50 (Rhinovirus Type 14): 0.0111 µg/mL
Activity on Rhinovirus Type 1A MTC [1]: >1

CCON=Cc1ccc(OCCC2CCN(c3ccc(C)nn3)CC2)c(C)c1 [Compound 51]
Activity on Rhinovirus Type 1A EC50 (HRV type 1A): <0.003 µg/mL
Activity on Rhinovirus Type 1A SI (HRV type 1A): >207.3
Activity on Rhinovirus Type 14 EC50 (Rhinovirus Type 14): 0.0093 µg/mL
Activity on Rhinovirus Type 1A MTC [1]: 0.663

CON=Cc1ccc(OCCC2CCN(c3ccc(C)nn3)CC2)c(C)c1 [Compound 52]
Activity on Rhinovirus Type 1A EC50 (HRV type 1A): <0.003 µg/mL
Activity on Rhinovirus Type 1A SI (HRV type 1A): >312
Activity on Rhinovirus Type 14 EC50 (Rhinovirus Type 14): 0.0054 µg/mL
Activity on Rhinovirus Type 1A MTC [1]: >1

CCON=Cc1ccc(OCCC2CCN(c3ccc(C)nn3)CC2)c(O)c1 [Compound 146]
Activity on Rhinovirus Type 1A EC50 (HRV type 1A): 0.051 µg/mL
Activity on Rhinovirus Type 1A SI (HRV type 1A): >19
Activity on Rhinovirus Type 14 EC50 (Rhinovirus Type 14): 0.0084 µg/mL
Activity on Rhinovirus Type 1A MTC [1]: >1

CCON=Cc1ccc(OCCC2CCN(c3cnc(Cl)cn3)CC2)cc1 [Compound 160]
Activity on Rhinovirus Type 14 EC50 (Rhinovirus Type 14): 0.0502 µg/mL

CCO/N=C/c1c(C)cc(OCCC2CCN(c3ccc(C)nn3)CC2)cc1C [Compound 185]
Activity on Rhinovirus Type 14 EC50 (Rhinovirus Type 14): 0.0697 µg/mL

CO/N=C/c1c(C)cc(OCCC2CCN(c3ccc(C)nn3)CC2)cc1C [Compound 186]
Activity on Rhinovirus Type 14 EC50 (Rhinovirus Type 14): 0.0349 µg/mL

CCO/N=C/c1ccc(OCCC2CCN(c3ccc(C)nn3)CC2)cc1OC [Compound 187]
Activity on Rhinovirus Type 14 EC50 (Rhinovirus Type 14): 0.0103 µg/mL

CCO/N=C/c1ccc(OCCC2CCN(c3ccc(C)nn3)CC2)cc1C [Compound 188]
Activity on Rhinovirus Type 14 EC50 (Rhinovirus Type 14): 0.0032 µg/mL

CO/N=C/c1ccc(OCCC2CCN(c3ccc(C)nn3)CC2)cc1C [Compound 189]
Activity on Rhinovirus Type 14 EC50 (Rhinovirus Type 14): 0.0011 µg/mL

CCON=Cc1cc(C)c(OCCC2CCN(c3ccc(C)nn3)CC2)cc1C [Compound 190]
Activity on Rhinovirus Type 14 EC50 (Rhinovirus Type 14): 0.0593 µg/mL

CON=Cc1cc(C)c(OCCC2CCN(c3ccc(C)nn3)CC2)cc1C [Compound 191]
Activity on Rhinovirus Type 14 EC50 (Rhinovirus Type 14): 0.0256 µg/mL

CCON=Cc1ccc(OCCC2CCN(c3ccc(C)nn3)CC2)c(C)c1C [Compound 192]
Activity on Rhinovirus Type 14 EC50 (Rhinovirus Type 14): 0.0258 µg/mL

CON=Cc1ccc(OCCC2CCN(c3ccc(C)nn3)CC2)c(C)c1C [Compound 193]
Activity on Rhinovirus Type 14 EC50 (Rhinovirus Type 14): 0.0308 µg/mL

CCO/N=C/c1ccc(OCCCCN(C)c2ccc(Cl)nn2)cc1 [Compound 195]
Activity on Rhinovirus Type 14 EC50 (Rhinovirus Type 14): 0.038 µg/mL

CCON=Cc1ccc(OCCC2CCN(c3cccc(C)n3)CC2)cc1 [Compound 196]
Activity on Rhinovirus Type 14 EC50 (Rhinovirus Type 14): 0.0424 µg/mL

CO/N=C/c1ccc(OCCC2CCN(c3cncc(Cl)n3)CC2)cc1 [Compound 199]
Activity on Rhinovirus Type 14 EC50 (Rhinovirus Type 14): 0.0402 µg/mL

CO/N=C/c1ccc(OCCC2CCN(c3nc4ccccc4o3)CC2)cc1 [Compound 200]
Activity on Rhinovirus Type 14 EC50 (Rhinovirus Type 14): 0.021 µg/mL

CCO/N=C/c1ccc(OCCC2CCN(c3nc4ccccc4o3)CC2)cc1 [Compound 201]
Activity on Rhinovirus Type 14 EC50 (Rhinovirus Type 14): 0.0261 µg/mL

CO/N=C/c1ccc(OCCC2CCN(c3nc(OC)nc(OC)n3)CC2)cc1 [Compound 202]
Activity on Rhinovirus Type 14 EC50 (Rhinovirus Type 14): 0.0593 µg/mL

CCO/N=C/c1ccc(OCCC2CCN(c3nc(OC)nc(OC)n3)CC2)cc1 [Compound 203]
Activity on Rhinovirus Type 14 EC50 (Rhinovirus Type 14): 0.060 µg/mL

CCc1cnc(N2CCC(CCOc3ccc(/C=N/OC)cc3)CC2)nc1 [Compound 204]
Activity on Rhinovirus Type 14 EC50 (Rhinovirus Type 14): 0.0554 µg/mL

CCO/N=C/c1ccc(OCCC2CCN(c3ncc(CC)cn3)CC2)cc1 [Compound 205]
Activity on Rhinovirus Type 14 EC50 (Rhinovirus Type 14): 0.0638 µg/mL

CO/N=C/c1ccc(OCCC2CCN(c3nc4ccccc4s3)CC2)cc1 [Compound 206]
Activity on Rhinovirus Type 14 EC50 (Rhinovirus Type 14): 0.0233 µg/mL

CCO/N=C/c1ccc(OCCCCCOc2ccc(Cl)nn2)cc1 [Compound 209]
Activity on Rhinovirus Type 14 EC50 (Rhinovirus Type 14): 0.0157 µg/mL

CCO/N=C/c1ccc(OCCC2CCN(c3cc(C)c(Cl)nn3)CC2)cc1 [Compound 212]
Activity on Rhinovirus Type 14 EC50 (Rhinovirus Type 14): 0.0107 µg/mL

Reference: patent US7078403B1, “Antiviral agents” (Biota Scientific Management Pty Ltd., priority 1999, dated 2006)
